“And” between values parts separate entries of the source, which are not always exact repeats. Equal values may be shown once.
Assay: xn = mol fraction of the nth substance listed

OCCCCO + CN1CCCC1=O
308.15 K, 101 kPa
Details	viscosity [mPa·s]
x1 = 0.0277	1.784
x1 = 0.0556	1.943
x1 = 0.1011	2.235
x1 = 0.1982	3.025
x1 = 0.2982	4.088
x1 = 0.4038	5.57
x1 = 0.4943	7.06
x1 = 0.6011	11.08
x1 = 0.7044	16.24
x1 = 0.7935	21.61
x1 = 0.8996	33.43
x1 = 0.946	39.29
x1 = 0.965	41.43

CCCCCCCC/C=C\CCCCCCCC(=O)O + CN1CCC[C@H]1c1cccnc1
viscosity [mPa·s], 101 kPa
Details	298.15 K	323.15 K
x2 = 0.1049	74.27	22.13
x2 = 0.1989	107	29.28
x2 = 0.2016	108	29.56
x2 = 0.2132	110.3	30.03
x2 = 0.2175	110.4	30.15
x2 = 0.2346	112.3	30.48
x2 = 0.2482	110.3	30.13
x2 = 0.2489	110	30.12
x2 = 0.2601	109.3	30.1
x2 = 0.2826	105.3	28.77
x2 = 0.298	102.5	28.02
x2 = 0.4102	73.48	22.19
x2 = 0.4841	51.84	17.6
x2 = 0.5948	34.19	12.35
x2 = 0.7031	20.12	8.136
x2 = 0.7939	11.7	5.197
x2 = 0.8975	7.276	3.432

OCCCCO + CN(C)C=O
308.15 K, 101 kPa
Details	viscosity [mPa·s]
x1 = 0.0565	0.762
x1 = 0.101	0.904
x1 = 0.1892	1.222
x1 = 0.2806	1.761
x1 = 0.3915	2.578
x1 = 0.4722	3.596
x1 = 0.5803	6.998
x1 = 0.6682	10.85
x1 = 0.7755	17.92
x1 = 0.8845	28.4
x1 = 0.9487	37.31

Cc1cc(C)cc(C)c1 + CO
293.15 K, 101 kPa
Details	viscosity [mPa·s]
x2 = 0.2	0.696
x2 = 0.4	0.699
x2 = 0.5	0.715
x2 = 0.6	0.721
x2 = 0.8	0.683

O=C1CCCN1 + CO
298.15 K, 100 kPa
Details	viscosity
x1 = 0.0098	0.568 mPa·s
x1 = 0.0194	0.587 mPa·s
x1 = 0.0295	0.641 mPa·s
x1 = 0.0392	0.657 mPa·s
x1 = 0.0499	0.687 mPa·s
x1 = 0.059	0.671 mPa·s
x1 = 0.0688	0.691 mPa·s
x1 = 0.078	0.708 mPa·s
x1 = 0.0883	0.755 mPa·s
x1 = 0.0973	0.759 mPa·s
x1 = 0.0988	0.906 mPa·s
x1 = 0.2022	1.133 mPa·s
x1 = 0.2963	1.432 mPa·s
x1 = 0.3984	1.937 mPa·s
x1 = 0.4592	2.346 mPa·s
x1 = 0.5694	3.304 mPa·s
x1 = 0.6844	4.749 mPa·s
x1 = 0.7834	6.52 mPa·s
x1 = 0.8988	9.529 mPa·s and 9.56 mPa·s
x1 = 0.9076	9.83 mPa·s
x1 = 0.9213	10.34 mPa·s
x1 = 0.9308	10.66 mPa·s
x1 = 0.9383	10.97 mPa·s
x1 = 0.9496	11.39 mPa·s
x1 = 0.9615	11.92 mPa·s
x1 = 0.9741	12.35 mPa·s
x2 = 0.0101	13.03 mPa·s
